{"source": "patent US6992188B1", "about": "“Substituted heterocyclic derivatives” (Pfizer, Inc., priority 1995, dated 2006)"}
{"compound": "CCC(CC)n1c(=O)[nH]c2c(Oc3c(C)cc(C)cc3C)nc(C)cc21", "note": "[Example 4, 1-(1-Ethylpropyl)-6-methyl-4-(2,4,6-trimethylphenoxy)-1,3-dihydro-imidazo[4,5-c]pyridin-2-one]", "values": [{"measurement": "melting point", "value": "235 to 237", "unit": "°C"}]}
